This note sets out measurements from patent US8211935B2, “Heterocyclic derivatives for modulation of calcium channels” (Vertex Pharmaceuticals Incorporated, priority 2004, dated 2012).

T1 sequence (Q00975 whole entry): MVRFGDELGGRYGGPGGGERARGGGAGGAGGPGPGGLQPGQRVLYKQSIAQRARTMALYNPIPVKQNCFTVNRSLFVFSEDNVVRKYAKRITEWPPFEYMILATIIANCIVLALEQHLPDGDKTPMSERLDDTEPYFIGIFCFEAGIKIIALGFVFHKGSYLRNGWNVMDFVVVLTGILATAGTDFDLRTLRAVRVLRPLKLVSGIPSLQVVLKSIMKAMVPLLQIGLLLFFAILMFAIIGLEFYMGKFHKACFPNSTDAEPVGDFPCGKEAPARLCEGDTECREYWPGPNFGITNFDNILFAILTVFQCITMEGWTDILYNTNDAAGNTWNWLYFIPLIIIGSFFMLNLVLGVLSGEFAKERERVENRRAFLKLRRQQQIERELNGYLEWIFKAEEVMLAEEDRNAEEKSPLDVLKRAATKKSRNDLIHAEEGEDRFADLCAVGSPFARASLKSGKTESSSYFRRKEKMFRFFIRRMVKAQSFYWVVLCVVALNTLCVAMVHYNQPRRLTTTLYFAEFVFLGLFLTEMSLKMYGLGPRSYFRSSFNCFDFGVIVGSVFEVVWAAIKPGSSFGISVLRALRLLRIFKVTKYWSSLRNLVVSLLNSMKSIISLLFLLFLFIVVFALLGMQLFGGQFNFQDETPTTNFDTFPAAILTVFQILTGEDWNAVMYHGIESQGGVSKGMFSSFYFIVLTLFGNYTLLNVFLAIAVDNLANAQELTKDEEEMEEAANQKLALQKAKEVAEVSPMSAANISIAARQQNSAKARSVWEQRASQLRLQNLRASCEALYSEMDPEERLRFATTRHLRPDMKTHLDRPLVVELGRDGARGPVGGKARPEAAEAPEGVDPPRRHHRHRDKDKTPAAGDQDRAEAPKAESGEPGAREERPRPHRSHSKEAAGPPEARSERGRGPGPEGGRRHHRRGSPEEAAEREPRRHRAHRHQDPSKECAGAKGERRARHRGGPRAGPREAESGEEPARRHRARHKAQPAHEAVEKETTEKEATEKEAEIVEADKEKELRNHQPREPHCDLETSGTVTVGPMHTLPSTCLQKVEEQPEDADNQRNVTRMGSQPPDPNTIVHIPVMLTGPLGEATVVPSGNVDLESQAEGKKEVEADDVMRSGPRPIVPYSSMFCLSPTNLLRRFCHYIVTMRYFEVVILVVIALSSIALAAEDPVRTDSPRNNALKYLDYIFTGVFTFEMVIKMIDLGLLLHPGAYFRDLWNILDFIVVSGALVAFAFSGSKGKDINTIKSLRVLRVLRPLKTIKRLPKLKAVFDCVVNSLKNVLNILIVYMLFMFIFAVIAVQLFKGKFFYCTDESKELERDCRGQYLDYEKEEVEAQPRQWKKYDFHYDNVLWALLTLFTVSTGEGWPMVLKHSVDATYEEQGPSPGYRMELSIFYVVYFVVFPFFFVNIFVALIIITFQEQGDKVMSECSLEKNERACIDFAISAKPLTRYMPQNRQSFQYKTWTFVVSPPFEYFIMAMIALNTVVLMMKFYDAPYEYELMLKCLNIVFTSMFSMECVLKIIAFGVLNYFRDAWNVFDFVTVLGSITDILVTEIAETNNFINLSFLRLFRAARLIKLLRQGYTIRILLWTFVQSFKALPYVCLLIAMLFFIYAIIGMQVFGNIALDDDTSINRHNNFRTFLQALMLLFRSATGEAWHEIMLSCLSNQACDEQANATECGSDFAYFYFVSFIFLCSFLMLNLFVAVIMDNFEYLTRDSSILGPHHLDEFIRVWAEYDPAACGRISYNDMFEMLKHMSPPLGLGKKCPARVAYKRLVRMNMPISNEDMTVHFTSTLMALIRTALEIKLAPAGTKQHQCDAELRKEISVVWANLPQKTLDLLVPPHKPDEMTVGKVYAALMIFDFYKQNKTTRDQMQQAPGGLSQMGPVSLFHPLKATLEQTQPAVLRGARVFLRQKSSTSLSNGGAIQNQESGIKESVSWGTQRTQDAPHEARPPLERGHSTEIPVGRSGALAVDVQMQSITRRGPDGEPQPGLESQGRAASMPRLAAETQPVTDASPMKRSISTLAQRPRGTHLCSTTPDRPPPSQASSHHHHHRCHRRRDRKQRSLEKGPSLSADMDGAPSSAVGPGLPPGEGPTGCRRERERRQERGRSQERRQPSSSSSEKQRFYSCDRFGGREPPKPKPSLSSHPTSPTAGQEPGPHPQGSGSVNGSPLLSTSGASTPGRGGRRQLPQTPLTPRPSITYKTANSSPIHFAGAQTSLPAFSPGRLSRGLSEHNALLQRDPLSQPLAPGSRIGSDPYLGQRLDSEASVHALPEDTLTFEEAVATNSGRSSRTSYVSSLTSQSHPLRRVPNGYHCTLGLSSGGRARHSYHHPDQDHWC
T1 sequence (P54284 whole entry partner): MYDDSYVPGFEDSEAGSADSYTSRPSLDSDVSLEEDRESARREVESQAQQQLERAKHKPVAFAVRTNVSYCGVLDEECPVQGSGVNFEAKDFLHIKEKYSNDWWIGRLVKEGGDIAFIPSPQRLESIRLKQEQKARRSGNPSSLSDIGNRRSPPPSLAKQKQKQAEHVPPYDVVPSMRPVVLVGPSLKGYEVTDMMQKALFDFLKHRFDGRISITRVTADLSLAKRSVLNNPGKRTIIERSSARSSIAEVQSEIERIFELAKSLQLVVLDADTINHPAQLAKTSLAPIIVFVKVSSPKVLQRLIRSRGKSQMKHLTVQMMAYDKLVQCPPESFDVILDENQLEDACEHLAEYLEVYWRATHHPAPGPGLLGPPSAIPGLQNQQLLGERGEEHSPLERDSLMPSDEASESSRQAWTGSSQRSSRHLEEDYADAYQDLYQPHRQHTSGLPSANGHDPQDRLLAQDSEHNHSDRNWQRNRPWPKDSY
T1 sequence (P54289 25-946 partner limits assumed): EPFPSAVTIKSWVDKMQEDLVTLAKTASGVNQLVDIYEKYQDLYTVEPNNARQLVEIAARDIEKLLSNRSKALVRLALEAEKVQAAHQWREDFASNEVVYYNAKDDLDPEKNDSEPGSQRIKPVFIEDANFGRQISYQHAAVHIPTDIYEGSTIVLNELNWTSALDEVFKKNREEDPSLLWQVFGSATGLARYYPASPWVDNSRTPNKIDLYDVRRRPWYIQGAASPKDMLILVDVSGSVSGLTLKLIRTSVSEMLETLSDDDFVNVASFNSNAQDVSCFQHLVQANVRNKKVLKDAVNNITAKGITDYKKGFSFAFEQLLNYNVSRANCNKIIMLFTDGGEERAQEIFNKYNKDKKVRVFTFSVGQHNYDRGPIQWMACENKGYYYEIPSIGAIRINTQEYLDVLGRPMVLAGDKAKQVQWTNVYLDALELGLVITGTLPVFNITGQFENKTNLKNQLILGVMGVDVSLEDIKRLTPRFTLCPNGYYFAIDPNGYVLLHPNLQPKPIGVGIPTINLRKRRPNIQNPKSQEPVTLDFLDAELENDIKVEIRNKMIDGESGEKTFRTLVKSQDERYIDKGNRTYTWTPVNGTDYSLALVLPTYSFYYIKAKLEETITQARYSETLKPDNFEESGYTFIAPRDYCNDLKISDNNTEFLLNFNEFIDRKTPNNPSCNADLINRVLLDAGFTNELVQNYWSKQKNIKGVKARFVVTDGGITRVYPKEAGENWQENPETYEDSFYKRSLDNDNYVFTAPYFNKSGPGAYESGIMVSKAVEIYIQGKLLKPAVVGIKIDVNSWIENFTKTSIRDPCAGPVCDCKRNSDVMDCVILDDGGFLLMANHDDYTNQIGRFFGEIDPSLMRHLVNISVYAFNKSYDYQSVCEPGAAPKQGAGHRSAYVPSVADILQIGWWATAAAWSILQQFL
T1 sequence (P54289 947-1103 partner limits assumed): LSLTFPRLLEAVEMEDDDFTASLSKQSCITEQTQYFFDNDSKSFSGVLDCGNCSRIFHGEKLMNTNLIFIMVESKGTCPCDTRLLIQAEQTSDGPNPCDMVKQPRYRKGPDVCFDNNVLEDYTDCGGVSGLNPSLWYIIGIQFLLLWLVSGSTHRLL

The first test addresses T1, CaV2.2 (Homo sapiens, UniProt Q00975).
T1 construct: expressed in transfected cells; host or cells: HEK293
Nature of the test: VIPR optical membrane potential assay with electrical stimulation. The class given is cell-based.
Settings: not given
How it is done: Antagonist properties of test compounds were assessed as follows. Cells expressing the CaV of interest were placed into microtiter plates. After an incubation period, the cells were stained with fluorescent dyes sensitive to the transmembrane potential. The test compounds were added to the microtiter plate. The cells were stimulated with electrical means to evoke a CaV dependent membrane potential change from unblocked channels, which was detected and measured with trans-membrane potential-sensitive dyes. Antagonists were detected as a decreased membrane potential response to the stimulus.
VIPR® Optical Membrane Potential Assay Method with Electrical Stimulation
The following is an example of how CaV2.2 inhibition activity is measured using the optical membrane potential method. Other subtypes are performed in an analogous mode in a cell line expressing the CaV of interest.
HEK293 cells stably expressing CaV2.2 are plated into 96-well microtiter plates. After an appropriate incubation period, the cells are stained with the voltage sensitive dyes CC2-DMPE/DiSBAC2(3) as follows.
2×CC2-DMPE=20 μM CC2-DMPE: 10 mM CC2-DMPE is vortexed with an equivalent volume of 10% Pluronic, followed by vortexing in required amount of HBSS containing 10 mM HEPES. Each cell plate will require 5 mL of 2×CC2-DMPE. 50 μL of 2×CC2-DMPE is added to wells containing washed cells, resulting in a 10 μM final staining concentration. The cells are stained for 30 minutes in the dark at RT.
Vortex in required amount of Bath X with beta-cyclodextrin. Each 96 well cell plate will require 5 ml of 2×CC2DMPE. Wash plate with ELx405 with Bath X, leaving a residual volume of 50 μL/well. Add 50 μL of 2×CC2DMPE & DISBAC6(3) to each well. Stain for 30 minutes in the dark at RT.
Allow solution to sit for 10 minutes. Slowly mix in 370 mM BaCl2. This solution can be used to solvate compound plates. Note that compound plates are made at 1.5× drug concentration and not the usual 2×. Wash CC2 stained plate, again, leaving residual volume of 50 pt. Add 100 uL/well of the AY17 solution. Stain for 15 minutes in the dark at RT. Run plate on the optical reader.
The instrument comprises a microtiter plate handler, an optical system for exciting the coumarin dye while simultaneously recording the coumarin and oxonol emissions, a waveform generator, a current- or voltage-controlled amplifier, and a device for inserting electrodes in well. Under integrated computer control, this instrument passes user-programmed electrical stimulus protocols to cells within the wells of the microtiter plate.
Insert or use electrodes into each well to be assayed.
Use the current-controlled amplifier to deliver stimulation wave pulses for 3-5 s. Two seconds of pre-stimulus recording are performed to obtain the un-stimulated intensities. Five seconds of post-stimulation recording are performed to examine the relaxation to the resting state.
Data are analyzed and reported as normalized ratios of background-subtracted emission intensities measured in the 460 nm and 580 nm channels. Background intensities are then subtracted from each assay channel. Background intensities are obtained by measuring the emission intensities during the same time periods from identically treated assay wells in which there are no cells. The response as a function of time is then reported as the ratios obtained using the following formula: […]
The data is further reduced by calculating the initial (Ri) and final (Rf) ratios. These are the average ratio values during part or all of the pre-stimulation period, and during sample points during the stimulation period. The response to the stimulus R=Rf/Ri is then calculated.
Control responses are obtained by performing assays in the presence of a compound with the desired properties (positive control), such as mibefradil, and in the absence of pharmacological agents (negative control). Responses to the negative (N) and positive (P) controls are calculated as above.
The IC50 is the midpoint of a concentration-inhibition curve. `Cc1c(C(=O)N2CCC3(CC2)OCCO3)oc2ccc(S(=O)(=O)N3CCOCC3)cc12` [compound 432] displayed a half-maximal inhibitory concentration (IC50) of less than 20 µM.

The test is the same for the next values; noted with them: Table 3, biological assay data; read-out: IC50.
As for `O=C(NC1CC1)c1cc2cc(NS(=O)(=O)c3ccccc3)ccc2[nH]1` [compound 428], the half-maximal inhibitory concentration (IC50) was less than 20 µM. Still for that read-out and setting: under `CC1CCN(S(=O)(=O)c2ccc3oc(C(=O)NCCC4CCOCC4)cc3c2)CC1` [compound 266] stands less than 5 µM; under `CC1CCN(S(=O)(=O)c2ccc3[nH]c(CN4CCN(C)CC4)cc3c2)CC1` [compound 121], 5 to 20 µM; under `Cc1c(C(=O)N2CC(C)OC(C)C2)oc2ccc(S(=O)(=O)N3CCC(C)CC3)cc12` (centres unmarked) [compound 449], 5 to 20 µM. Same read-out and setting: the same measure for `Cc1c(C(=O)N2CCN(C)CC2)oc2ccc(S(=O)(=O)N3CCCC(C)C3)cc12` (centres unmarked) [compound 404]: 5 to 20 µM. For `CC(C)N(C(=O)c1cc2cc(S(=O)(=O)N3CCCCCC3)ccc2[nH]1)C(C)C` [compound 52], the IC50 is 5 to 20 µM.

For `Cc1c(C(=O)NCc2ccccc2)oc2ccc(S(=O)(=O)N3CCCC(C)C3)cc12` (centres unmarked) [compound 397], the IC50 lay in the range of 5 to 20 µM. With `Cc1ccc(S(=O)(=O)Nc2ccc3[nH]c(C(=O)NC4CC4)cc3c2)cc1` [compound 151], the IC50 was 5 to 20 µM. As to `Cc1c(C(=O)N2CCCCC2)oc2ccc(S(=O)(=O)N3CCCC(C)C3)cc12` (centres unmarked) [compound 300], the IC50 was less than 5 µM. Same read-out and setting: the same measure for `Cc1c(C(=O)N2CCOCC2)oc2ccc(S(=O)(=O)N3CCC(C)CC3)cc12` [compound 359]: 5 to 20 µM; for `CCNC(=O)c1oc2ccc(S(=O)(=O)N(CC)CC)cc2c1C` [compound 444]: less than 20 µM. On the same count and under the same terms, under `Cc1c(C(=O)NCCc2ccccc2)oc2ccc(S(=O)(=O)N3CCC4(CC3)OCCO4)cc12` [compound 136] stands 5 to 20 µM; under `Cc1c(C(=O)NC2CCCCC2)[nH]c2ccc(S(=O)(=O)N3CCCCCC3)cc12` [compound 309], less than 5 µM. As to `Cc1c(C(=O)N2CCCC2)[nH]c2ccc(S(=O)(=O)N3CCC(C)CC3)cc12` [compound 457], the IC50 is 5 to 20 µM. As for `CCN(CC)C(=O)c1[nH]c2ccc(S(=O)(=O)N3CCC(C)CC3)cc2c1C` [compound 168], the IC50 was 5 to 20 µM.

With `CCN(CC)C(=O)c1cc2cc(S(=O)(=O)N3CC(C)CC(C)C3)ccc2n1CC(O)CN(C)C` (centres unmarked) [compound 314], the IC50 was in the range of 5 to 20 µM. Still for that read-out and setting: the same measure for `CC1CC(C)CN(S(=O)(=O)c2ccc3[nH]c(C(=O)N4CCCCC4)cc3c2)C1` (centres unmarked) [compound 389]: less than 5 µM; for `Cc1c(C(=O)N2CCCCCC2)oc2ccc(S(=O)(=O)N3CCCC(C)C3)cc12` (centres unmarked) [compound 409]: less than 5 µM; for `CCN(CC)C(=O)c1cc2cc(S(=O)(=O)N3CC(C)CC(C)C3)ccc2n1CC(O)CN1CCN(C)CC1` (centres unmarked) [compound 191]: less than 5 µM. Same read-out and setting: the same measure for `CCNC(=O)c1cc2cc(S(=O)(=O)N3CCC(C)CC3)ccc2[nH]1` [compound 130]: less than 5 µM; for `Cc1c(C(=O)N(C)Cc2ccccc2)[nH]c2ccc(S(=O)(=O)N3CCC(C)CC3)cc12` [compound 206]: less than 5 µM. On to `CCN(CC)S(=O)(=O)c1ccc2oc(C(=O)NCC3CCOCC3)c(C)c2c1` [compound 458], for which the 50% inhibitory concentration (IC50) was less than 20 µM.

With `Cc1c(C(=O)NC2CC2)oc2ccc(S(=O)(=O)NCc3ccc(F)cc3)cc12` [compound 182], the IC50 is less than 20 µM. The same measure, in the same setting: the same measure for `CCN(CC)C(=O)c1cc2cc(S(=O)(=O)N3CCC(C)CC3)ccc2o1` [compound 268]: less than 5 µM; for `CC1CCN(S(=O)(=O)c2ccc3[nH]c(C(=O)N4CCN(C)CC4)cc3c2)CC1` [compound 313]: 5 to 20 µM; for `Cc1c(C(=O)NC2CCCCC2)oc2ccc(S(=O)(=O)N3CCCCCC3)cc12` [compound 446]: 5 to 20 µM. Still for that read-out and setting: the same measure for `Cc1c(C(=O)NCCC2CCOCC2)oc2ccc(S(=O)(=O)N3CC(C)CC(C)C3)cc12` (centres unmarked) [compound 6]: less than 5 µM. Still for that read-out and setting: under `CCOC(=O)N1CCN(C(=O)c2cc3cc(S(=O)(=O)N4CCCCCC4)ccc3o2)CC1` [compound 410] stands 5 to 20 µM.
